Assays:
JAK1 = target: T1, JAK1 (Homo sapiens, UniProt P23458); assay: Biochemical JAK1 kinase assay (LanthaScreen); details: for Ki: read-out: JAK 1 (pKi) (converted)
T1 construct: GST; purchased Life Technologies
Method in brief: (§1)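 TR-FRET read-out: terbium anti-pSTAT1 (pTyr701) antibody, 2 nM, with 10 mM EDTA quench, emission ratio 520/495 nm. GST-JAK phosphorylates GFP-STAT1 peptide for 1 h at ambient temperature after 1 h compound pre-incubation. pIC50 from dose-response converted to pKi by Cheng-Prusoff.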

Tyk2 = target: T2, Tyk2 (Homo sapiens, UniProt P29597); assay: Biochemical Tyk2 kinase assay (LanthaScreen); details: for Ki: read-out: Tyk 2 (pKi) (converted)
T2 construct: GST; purchased Life Technologies
Method in brief: as §1

[1] = test system: IL-2 stimulated pSTAT5 in Tall-1 T cells; assay: Cellular JAK3 potency assay: inhibition of IL-2 stimulated pSTAT5 in Tall-1 T cells; format: cell-based, human; details: for Tall-1 (pIC50): IL-2 stimulated pSTAT5, Tall-1 T cells; for IC50: Homo sapiens, TALL-1, IL-2 stimulated pSTAT5 in Tall-1 T cells, read-out: Tall-1 (pIC50) (converted)
Method in brief: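 Tall-1 human T cells (45,000/well) in phenol red-free DMEM with 10% FBS were preincubated with compound 1 h at 37 °C, then stimulated with IL-2 (final 300 ng/ml) for 30 min. Lysate pSTAT5 read by AlphaLisa; IC50 from inhibition curves, reported as pIC50 (mean±SD).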

JAK3 = target: T3, JAK3 (Homo sapiens, UniProt P52333); assay: Biochemical JAK3 kinase assay (LanthaScreen); design: GST; purchased Life Technologies; details: for Ki: read-out: JAK 3 (pKi) (converted)
T3 sequence (P52333 1-1124): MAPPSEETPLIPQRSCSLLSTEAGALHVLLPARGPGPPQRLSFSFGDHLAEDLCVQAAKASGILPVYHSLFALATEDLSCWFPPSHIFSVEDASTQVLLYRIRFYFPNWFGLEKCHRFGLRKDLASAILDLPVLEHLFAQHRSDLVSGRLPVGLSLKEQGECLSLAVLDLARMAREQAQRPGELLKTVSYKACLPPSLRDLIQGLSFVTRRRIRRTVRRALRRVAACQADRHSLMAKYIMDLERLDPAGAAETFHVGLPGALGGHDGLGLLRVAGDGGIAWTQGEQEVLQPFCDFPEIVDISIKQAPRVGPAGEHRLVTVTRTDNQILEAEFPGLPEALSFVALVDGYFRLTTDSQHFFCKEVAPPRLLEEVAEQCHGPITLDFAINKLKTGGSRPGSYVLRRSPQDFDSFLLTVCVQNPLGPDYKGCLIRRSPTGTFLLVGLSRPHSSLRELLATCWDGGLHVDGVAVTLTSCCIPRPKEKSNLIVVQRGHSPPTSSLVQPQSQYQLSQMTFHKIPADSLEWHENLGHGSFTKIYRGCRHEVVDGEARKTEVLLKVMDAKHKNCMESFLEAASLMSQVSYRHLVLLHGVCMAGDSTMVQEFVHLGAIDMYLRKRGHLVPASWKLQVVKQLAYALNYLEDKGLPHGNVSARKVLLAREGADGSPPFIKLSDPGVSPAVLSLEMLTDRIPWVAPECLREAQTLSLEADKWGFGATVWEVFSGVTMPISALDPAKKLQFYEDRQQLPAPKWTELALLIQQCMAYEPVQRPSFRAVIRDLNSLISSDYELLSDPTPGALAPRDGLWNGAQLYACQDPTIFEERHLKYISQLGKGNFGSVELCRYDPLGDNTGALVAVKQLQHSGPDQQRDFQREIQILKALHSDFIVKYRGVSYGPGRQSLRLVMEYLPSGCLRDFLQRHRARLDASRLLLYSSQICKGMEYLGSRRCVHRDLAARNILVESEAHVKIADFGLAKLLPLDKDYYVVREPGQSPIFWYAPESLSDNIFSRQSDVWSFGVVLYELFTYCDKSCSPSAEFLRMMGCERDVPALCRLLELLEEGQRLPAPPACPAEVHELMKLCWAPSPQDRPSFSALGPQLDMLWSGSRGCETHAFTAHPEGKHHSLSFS
Method in brief: as §1

JAK2 = target: T4, JAK2 (Homo sapiens, UniProt O60674); assay: Biochemical JAK2 kinase assay (LanthaScreen); details: for Ki: read-out: JAK 2 (pKi) (converted)
T4 construct: GST; purchased Life Technologies
Method in brief: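 GST-tagged recombinant JAK2 pre-incubated 1 h at ambient temperature with compound and GFP-STAT1 peptide in HEPES pH 7.5/MgCl2 buffer, then ATP added for a 1 h reaction with 1% DMSO. TR-FRET read after EDTA and Tb-anti-pSTAT1 (pTyr701) addition; IC50 from 4-parameter fit, converted to pKi by Cheng-Prusoff.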

[2] = selectivity JAK3 over JAK1, difference of pKi
[3] = selectivity: difference of pKi JAK3 and pKi JAK1

T2 sequence (P29597 whole entry): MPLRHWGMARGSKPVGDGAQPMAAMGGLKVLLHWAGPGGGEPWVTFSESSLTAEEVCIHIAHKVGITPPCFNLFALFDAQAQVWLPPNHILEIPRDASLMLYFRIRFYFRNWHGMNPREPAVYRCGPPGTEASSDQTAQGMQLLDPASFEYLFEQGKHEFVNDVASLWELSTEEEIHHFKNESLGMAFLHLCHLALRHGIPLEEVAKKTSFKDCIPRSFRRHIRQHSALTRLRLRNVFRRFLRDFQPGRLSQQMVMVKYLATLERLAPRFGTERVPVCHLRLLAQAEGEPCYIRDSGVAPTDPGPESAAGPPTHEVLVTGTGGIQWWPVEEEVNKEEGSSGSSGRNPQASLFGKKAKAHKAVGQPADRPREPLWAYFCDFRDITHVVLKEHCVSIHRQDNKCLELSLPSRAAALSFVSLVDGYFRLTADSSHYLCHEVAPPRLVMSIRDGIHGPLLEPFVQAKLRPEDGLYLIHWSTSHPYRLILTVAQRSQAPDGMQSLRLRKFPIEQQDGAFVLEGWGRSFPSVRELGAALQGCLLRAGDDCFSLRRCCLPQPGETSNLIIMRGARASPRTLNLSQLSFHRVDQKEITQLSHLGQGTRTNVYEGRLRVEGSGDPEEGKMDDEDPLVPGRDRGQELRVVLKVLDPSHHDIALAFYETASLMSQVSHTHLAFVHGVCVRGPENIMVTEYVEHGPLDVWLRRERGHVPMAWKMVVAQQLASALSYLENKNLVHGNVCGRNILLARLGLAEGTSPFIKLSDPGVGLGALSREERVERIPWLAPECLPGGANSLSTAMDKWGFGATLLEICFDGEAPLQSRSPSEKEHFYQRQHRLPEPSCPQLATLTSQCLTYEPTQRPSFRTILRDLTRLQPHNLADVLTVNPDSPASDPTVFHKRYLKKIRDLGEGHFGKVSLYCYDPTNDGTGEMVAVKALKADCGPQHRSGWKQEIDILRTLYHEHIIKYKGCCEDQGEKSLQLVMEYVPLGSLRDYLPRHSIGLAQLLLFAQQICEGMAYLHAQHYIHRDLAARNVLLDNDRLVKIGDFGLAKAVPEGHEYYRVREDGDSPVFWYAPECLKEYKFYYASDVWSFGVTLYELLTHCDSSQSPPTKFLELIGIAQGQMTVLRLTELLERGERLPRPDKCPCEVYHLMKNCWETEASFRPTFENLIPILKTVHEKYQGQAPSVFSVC
T1 sequence (P23458 whole entry): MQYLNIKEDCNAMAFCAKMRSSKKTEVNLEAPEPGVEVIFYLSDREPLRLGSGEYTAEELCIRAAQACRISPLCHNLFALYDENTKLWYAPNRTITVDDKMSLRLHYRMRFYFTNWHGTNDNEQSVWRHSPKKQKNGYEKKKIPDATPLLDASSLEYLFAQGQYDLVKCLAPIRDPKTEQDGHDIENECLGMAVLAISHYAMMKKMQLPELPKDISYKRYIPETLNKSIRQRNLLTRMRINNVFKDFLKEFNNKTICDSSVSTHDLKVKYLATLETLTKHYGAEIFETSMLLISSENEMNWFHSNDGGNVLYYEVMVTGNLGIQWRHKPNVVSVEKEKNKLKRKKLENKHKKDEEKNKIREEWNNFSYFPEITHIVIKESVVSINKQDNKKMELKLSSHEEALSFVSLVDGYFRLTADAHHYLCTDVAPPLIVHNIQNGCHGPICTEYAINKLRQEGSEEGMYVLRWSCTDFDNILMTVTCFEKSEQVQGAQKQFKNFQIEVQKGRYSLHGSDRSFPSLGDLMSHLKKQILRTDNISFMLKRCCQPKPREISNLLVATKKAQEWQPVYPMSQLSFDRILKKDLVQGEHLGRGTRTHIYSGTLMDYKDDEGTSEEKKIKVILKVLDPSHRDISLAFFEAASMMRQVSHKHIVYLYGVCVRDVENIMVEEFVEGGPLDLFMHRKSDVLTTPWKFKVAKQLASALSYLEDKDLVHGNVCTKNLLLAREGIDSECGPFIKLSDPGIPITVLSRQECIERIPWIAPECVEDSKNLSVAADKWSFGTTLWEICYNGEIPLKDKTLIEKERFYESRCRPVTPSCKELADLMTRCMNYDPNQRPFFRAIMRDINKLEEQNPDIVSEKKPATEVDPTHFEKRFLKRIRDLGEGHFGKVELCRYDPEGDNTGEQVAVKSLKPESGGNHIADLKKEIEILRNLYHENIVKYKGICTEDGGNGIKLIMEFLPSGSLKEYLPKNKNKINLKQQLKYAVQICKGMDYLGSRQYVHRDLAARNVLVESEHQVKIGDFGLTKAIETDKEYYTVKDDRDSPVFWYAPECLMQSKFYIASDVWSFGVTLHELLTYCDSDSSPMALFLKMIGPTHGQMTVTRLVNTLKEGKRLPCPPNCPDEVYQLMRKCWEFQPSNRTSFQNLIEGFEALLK
T4 sequence (O60674 whole entry): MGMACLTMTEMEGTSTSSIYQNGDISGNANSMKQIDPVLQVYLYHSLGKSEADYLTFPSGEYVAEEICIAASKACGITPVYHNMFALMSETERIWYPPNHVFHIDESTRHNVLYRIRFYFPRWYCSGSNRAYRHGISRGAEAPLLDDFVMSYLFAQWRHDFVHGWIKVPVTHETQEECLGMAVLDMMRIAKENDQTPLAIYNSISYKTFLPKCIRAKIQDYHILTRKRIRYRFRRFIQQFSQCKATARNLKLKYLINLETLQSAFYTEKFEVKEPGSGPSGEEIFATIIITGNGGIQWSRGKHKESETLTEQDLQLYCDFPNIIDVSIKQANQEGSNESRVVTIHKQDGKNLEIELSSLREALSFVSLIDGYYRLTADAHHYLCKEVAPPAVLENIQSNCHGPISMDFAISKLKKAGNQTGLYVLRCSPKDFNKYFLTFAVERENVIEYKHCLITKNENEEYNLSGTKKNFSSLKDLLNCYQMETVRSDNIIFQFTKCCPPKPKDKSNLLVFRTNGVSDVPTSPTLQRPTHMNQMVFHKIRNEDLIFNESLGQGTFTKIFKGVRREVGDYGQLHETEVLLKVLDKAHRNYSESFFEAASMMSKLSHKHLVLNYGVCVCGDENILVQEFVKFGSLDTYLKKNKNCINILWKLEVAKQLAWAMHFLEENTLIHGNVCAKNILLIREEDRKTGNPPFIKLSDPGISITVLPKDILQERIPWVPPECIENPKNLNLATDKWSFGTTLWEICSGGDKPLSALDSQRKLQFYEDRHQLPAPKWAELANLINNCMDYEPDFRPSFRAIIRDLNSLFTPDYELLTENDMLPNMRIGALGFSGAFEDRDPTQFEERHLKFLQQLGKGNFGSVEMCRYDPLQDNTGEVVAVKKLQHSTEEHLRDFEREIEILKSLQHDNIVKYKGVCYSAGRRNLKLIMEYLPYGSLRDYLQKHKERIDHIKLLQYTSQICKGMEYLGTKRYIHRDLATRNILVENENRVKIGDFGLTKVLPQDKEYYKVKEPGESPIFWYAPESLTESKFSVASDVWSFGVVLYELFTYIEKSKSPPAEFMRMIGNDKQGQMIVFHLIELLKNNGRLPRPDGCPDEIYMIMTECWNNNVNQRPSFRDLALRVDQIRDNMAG

Row | Structure (SMILES) | JAK 1 (pKi) (JAK1) | Tyk 2 (pKi) (Tyk2) | Tall-1 (pIC50) [1] | JAK 3 (pKi) (JAK3) | JAK3 (pKi)-JAK1 (pKi) (JAK3; [2]) | JAK 2 (pKi) (JAK2) | Ki (JAK1) | Ki (Tyk2) | IC50 [1] | Ki (JAK3) | JAK3 (pKi)-JAK1 (pKi) (JAK3; [3]) | Ki (JAK2)
1 | C=CC(=O)N1CCCC(Oc2cc(-c3ccc(O)c(F)c3)cc3[nH]ncc23)C1 (stereo not drawn) [Compound 8-5] | E (a pKi value of 7 or below (Ki of 100 nM or above)) | E (a pKi value of 7 or below (Ki of 100 nM or above)) | A (a pIC50 value≥7.5 (IC50≤32 nM)) | A (a pKi value≥10 (Ki≤0.1 nM)) | A (a value of 3 or above) | D (a pKi value between 7 and 8 (Ki between 100 nM and 10 nM)) |  |  |  |  |  | 
2 | C=CC(=O)N1CCCC(Oc2nc(-c3ccc(O)cc3)cc3[nH]ncc23)C1 (stereo not drawn) [Compound 8-7] | E (a pKi value of 7 or below (Ki of 100 nM or above)) | E (a pKi value of 7 or below (Ki of 100 nM or above)) | B (a pIC50 value between 6.7 (included) and 7.5 (IC50 between 200 nM and 32 nM)) | B (a pKi value between 9 and 10 (Ki between 1 nM and 0.1 nM)) | A (a value of 3 or above) | D (a pKi value between 7 and 8 (Ki between 100 nM and 10 nM)) |  |  |  |  |  | 
3 | C=CC(=O)N1CCC[C@H](Oc2nc(-c3ccc(O)c(F)c3)cc3[nH]ncc23)C1 [Compound 8-11] | D (a pKi value between 7 and 8 (Ki between 100 nM and 10 nM)) | E (a pKi value of 7 or below (Ki of 100 nM or above)) | A (a pIC50 value≥7.5 (IC50≤32 nM)) | A (a pKi value≥10 (Ki≤0.1 nM)) | B (a value of 2.3 to 3) | D (a pKi value between 7 and 8 (Ki between 100 nM and 10 nM)) |  |  |  |  |  | 
4 | C=CC(=O)N1CCC[C@H](Oc2cc(-c3ccc(O)c(Cl)c3)nc3[nH]ncc23)C1 [Compound 8-14] | E (a pKi value of 7 or below (Ki of 100 nM or above)) | E (a pKi value of 7 or below (Ki of 100 nM or above)) | B (a pIC50 value between 6.7 (included) and 7.5 (IC50 between 200 nM and 32 nM)) | A (a pKi value≥10 (Ki≤0.1 nM)) | A (a value of 3 or above) | E (a pKi value of 7 or below (Ki of 100 nM or above)) |  |  |  |  |  | 
5 | C=CC(=O)N1C2CCC1CC(Oc1cc(-c3ccc(O)cc3)cc3[nH]ncc13)C2 (stereo not drawn) [Compound 9-1] | E (a pKi value of 7 or below (Ki of 100 nM or above)) | E (a pKi value of 7 or below (Ki of 100 nM or above)) | A (a pIC50 value≥7.5 (IC50≤32 nM)) | A (a pKi value≥10 (Ki≤0.1 nM)) | A (a value of 3 or above) | D (a pKi value between 7 and 8 (Ki between 100 nM and 10 nM)) |  |  |  |  |  | 
6 | C=CC(=O)N1C2CCC1CC(Oc1cc(-c3ccc(O)c(Cl)c3)cc3[nH]ncc13)C2 (stereo not drawn) [Compound 9-2] | E (a pKi value of 7 or below (Ki of 100 nM or above)) | E (a pKi value of 7 or below (Ki of 100 nM or above)) | A (a pIC50 value≥7.5 (IC50≤32 nM)) | B (a pKi value between 9 and 10 (Ki between 1 nM and 0.1 nM)) | A (a value of 3 or above) | E (a pKi value of 7 or below (Ki of 100 nM or above)) |  |  |  |  |  | 
7 | C=CC(=O)N1C2CCC1CC(Oc1cc(-c3ccc(O)c(F)c3)cc3[nH]ncc13)C2 (stereo not drawn) [Compound 9-4] | E (a pKi value of 7 or below (Ki of 100 nM or above)) | E (a pKi value of 7 or below (Ki of 100 nM or above)) | A (a pIC50 value≥7.5 (IC50≤32 nM)) | A (a pKi value≥10 (Ki≤0.1 nM)) | A (a value of 3 or above) | C (a pKi value between 8 and 9 (Ki between 10 nM and 1 nM)) |  |  |  |  |  | 
8 | C=CC(=O)N1C2CCC1CC(Nc1cc(-c3ccc(O)cc3)cc3[nH]ncc13)C2 (stereo not drawn) [Compound 9-9] | D (a pKi value between 7 and 8 (Ki between 100 nM and 10 nM)) | D (a pKi value between 7 and 8 (Ki between 100 nM and 10 nM)) | A (a pIC50 value≥7.5 (IC50≤32 nM)) | A (a pKi value≥10 (Ki≤0.1 nM)) | B (a value of 2.3 to 3) | C (a pKi value between 8 and 9 (Ki between 10 nM and 1 nM)) |  |  |  |  |  | 
9 | C=CC(=O)N1CC(COc2cc(-c3ccc(O)cc3)nc3[nH]ncc23)C1 [Compound 10, 1-(3-(((6-(4-hydroxyphenyl)-1H-pyrazolo[3,4-b]pyridin-4-yl)oxy)methyl)azetidin-1-yl)prop-2-en-1-one] |  |  |  |  |  |  | > 100 nM | > 100 nM | 31.6 to 200 nM | < 0.1 nM | A (a value of 3 or above) | > 100 nM
10 | C=CC(=O)N1C2CCC1CC(Oc1cc(-c3ccc(O)cc3)cc3[nH]ncc13)C2 (stereo not drawn) [Compound 10-2] | D (a pKi value between 7 and 8 (Ki between 100 nM and 10 nM)) | D (a pKi value between 7 and 8 (Ki between 100 nM and 10 nM)) | A (a pIC50 value≥7.5 (IC50≤32 nM)) | A (a pKi value≥10 (Ki≤0.1 nM)) | B (a value of 2.3 to 3) | C (a pKi value between 8 and 9 (Ki between 10 nM and 1 nM)) |  |  |  |  |  | 
11 | C=CC(=O)N1C2CCC1CC(Oc1cc(-c3ccc(O)c(Cl)c3)cc3[nH]ncc13)C2 (stereo not drawn) [Compound 10-4] | E (a pKi value of 7 or below (Ki of 100 nM or above)) | E (a pKi value of 7 or below (Ki of 100 nM or above)) | B (a pIC50 value between 6.7 (included) and 7.5 (IC50 between 200 nM and 32 nM)) | B (a pKi value between 9 and 10 (Ki between 1 nM and 0.1 nM)) | A (a value of 3 or above) | D (a pKi value between 7 and 8 (Ki between 100 nM and 10 nM)) |  |  |  |  |  | 
12 | C=CC(=O)N1C2CCC1CC(Nc1cc(-c3ccc(O)cc3)cc3[nH]ncc13)C2 (stereo not drawn) [Compound 10-7] | E (a pKi value of 7 or below (Ki of 100 nM or above)) | E (a pKi value of 7 or below (Ki of 100 nM or above)) | B (a pIC50 value between 6.7 (included) and 7.5 (IC50 between 200 nM and 32 nM)) | B (a pKi value between 9 and 10 (Ki between 1 nM and 0.1 nM)) | A (a value of 3 or above) | D (a pKi value between 7 and 8 (Ki between 100 nM and 10 nM)) |  |  |  |  |  | 
13 | CN(C)C/C=C/C(=O)N1CC(CN(C)c2cc(-c3ccc(O)cc3)cc3[nH]ncc23)C1 [Compound 11, (E)-4-(dimethylamino)-1-(3-(((6-(4-hydroxyphenyl)-1H-indazol-4-yl)(methyl)amino)methyl)azetidin-1-yl)but-2-en-1-one] |  |  |  |  |  |  | > 100 nM | > 100 nM | 31.6 to 200 nM | 0.1 to 1 nM | A (a value of 3 or above) | > 100 nM
14 | C=CC(=O)N1CC[C@H](Sc2cc(-c3ccc(O)cc3)cc3[nH]ncc23)C1 [Compound 12, (S)-1-(3-((6-(4-hydroxyphenyl)-1H-indazol-4-yl)thio)pyrrolidin-1-yl)prop-2-en-1-one] |  |  |  |  |  |  | > 100 nM | > 100 nM | 31.6 to 200 nM | 0.1 to 1 nM | B (a value of 2.3 to 3) | > 100 nM

— patent US10392368B2, “Pyrazolo and triazolo bicyclic compounds as JAK kinase inhibitors” (THERAVANCE BIOPHARMA R&D IP, LLC, priority 2017, dated 2019)
